Measured values as given in patent US20020090352A1, “Compositions and methods for use in modulating immune system function” (priority 2000, published 2002).
“Also recorded” adds a separate entry of the source. Marks after values point to notes of the source that are not given here.

Assays:
[1] = in vitro; conditions: human
[2] = tested on: immature LC (Langerhans cells); experiment: Apoptosis of immature LC, flow cytometry of PI stained nuclei (sub 2N particles) / annexin V; format: cell-based, human; conditions: for induction of apoptosis / death of immature LC by the substance on its own: no TNFα
[3] = tested on: T-cells stimulated by LC; format: cell-based, human
[4] = tested on: immature LC (Langerhans cells); experiment: Activation of immature LC: HLA-DR and CD86 expression by flow cytometry; format: cell-based, human; design: class II or CD86 upregulation on immature LC: dose or concentration left out as unconfirmed; conditions: for activation of immature LC (class II / CD86, DRhi-CD86hi) in the presence of TNFα: TNFα 1-10 ng/ml; for class II or CD86 upregulation on immature LC: in the absence or at low concentrations of TNFα
Description: Immature LC were cultured with retinol or vehicle and/or TNFα for 40 h. Cells were washed and incubated with HLA-DR-FITC and CD86-PE or isotype controls for 15 min at 4° C. 10^4 events were then analyzed with a FACScalibur (Becton Dickinson) using CellQuest software (Becton Dickinson). % are given for DRhi CD86hi cells gated as indicated. Data are representative of three experiments on different donors.
FIG. 3A: Day 6 immature LC were cultured for 40 h with TNFα and/or retinoids or vehicle as indicated. Cells were washed and stained with HLA-DR-FITC and CD86-PE or isotype controls for 15 min at 4° C. 10^4 events were then analyzed with a FACScalibur (Becton Dickinson) using CellQuest software (Becton Dickinson). Data are given for DRhi/CD86 hi cells gated as indicated, and are representative of 10 experiments on different donors.
Percentages of DRhi/CD86 hi cells are represented and results are expressed as the mean±SD of at last three experiments on different donors.
Flow Cytometry Analysis. 1×10^5 cells were incubated in 96-well plates (Becton Dickinson Labware, Franklin Lakes, N.J.) for 15 min at 4 ° C. in PBS, 2% human AB serum, and 0.01 M NaN3, with FITC-conjugated anti-DR (Immunotech, Marseille, France) and PE-conjugated CD86 (Pharmingen, San Diego, Calif.) at the appropriate concentration, or with control isotype-matched irrelevant mAbs at the same concentration. After washing, 10^4 events were analyzed with a FACScalibur (Becton Dickinson Immunocytometry Systems, Mountain View, Calif.) using CellQuest software.

[5] = tested on: NF-κB complexes; experiment: Electrophoretic mobility shift assay of nuclear NF-κB complexes in immature LC; format: cell-based, human; conditions: retinoid 1 μM 6 h, then TNFα 50 ng/ml 30 min; result in words
[6] = molecular target: T1, RARγ AF2 (Homo sapiens, UniProt P13631); conditions: retinoid activity, reporter cells; cited from earlier work; further: key: '+' = agonist; '(+)' = weak agonist; '−' = antagonist; '0' = absence of agonist and antagonist activities
T1 construct: expressed in transfected cells
T1 sequence (P13631 185-419 limits assumed): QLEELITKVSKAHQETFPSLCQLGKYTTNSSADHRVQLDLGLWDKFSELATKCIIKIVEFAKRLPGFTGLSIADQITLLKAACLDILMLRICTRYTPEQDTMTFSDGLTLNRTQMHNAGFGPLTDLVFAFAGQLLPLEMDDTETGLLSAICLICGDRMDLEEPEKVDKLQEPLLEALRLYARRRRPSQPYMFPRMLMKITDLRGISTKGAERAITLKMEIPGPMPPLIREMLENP

[7] = molecular target: T2, RARα AF2 (Homo sapiens, UniProt P10276); conditions: retinoid activity, reporter cells; cited from earlier work; further: key: '+' = agonist; '(+)' = weak agonist; '−' = antagonist; '0' = absence of agonist and antagonist activities
T2 construct: expressed in transfected cells
T2 sequence (P10276 183-417 limits assumed): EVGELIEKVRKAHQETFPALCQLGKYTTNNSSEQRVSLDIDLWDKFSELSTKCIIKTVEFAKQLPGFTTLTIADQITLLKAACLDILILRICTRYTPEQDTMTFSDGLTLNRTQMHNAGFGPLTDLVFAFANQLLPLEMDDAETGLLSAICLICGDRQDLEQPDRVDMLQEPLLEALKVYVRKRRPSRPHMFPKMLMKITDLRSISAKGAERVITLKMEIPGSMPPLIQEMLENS

[8] = molecular target: T3, RARα-RXRα heterodimer (Homo sapiens, UniProt P10276+P19793); conditions: retinoid activity, transient transfection; cited from earlier work; further: key: '+' = agonist; '(+)' = weak agonist; '−' = antagonist; '0' = absence of agonist and antagonist activities
T3 construct: expressed in transfected cells
T3 sequence (P10276 1-462): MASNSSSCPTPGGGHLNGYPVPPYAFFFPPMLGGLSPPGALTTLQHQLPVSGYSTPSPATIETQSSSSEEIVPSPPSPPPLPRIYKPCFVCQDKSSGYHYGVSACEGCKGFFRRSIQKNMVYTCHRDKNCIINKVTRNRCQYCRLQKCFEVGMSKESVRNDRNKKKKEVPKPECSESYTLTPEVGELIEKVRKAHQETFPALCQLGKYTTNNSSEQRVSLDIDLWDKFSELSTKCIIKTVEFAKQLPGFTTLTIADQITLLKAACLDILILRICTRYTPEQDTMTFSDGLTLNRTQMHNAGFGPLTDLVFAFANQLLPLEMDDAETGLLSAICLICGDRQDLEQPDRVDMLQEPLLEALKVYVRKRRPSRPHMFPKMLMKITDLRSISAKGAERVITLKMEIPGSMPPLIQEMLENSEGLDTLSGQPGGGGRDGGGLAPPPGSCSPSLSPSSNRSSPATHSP
T3 sequence (P19793 1-462): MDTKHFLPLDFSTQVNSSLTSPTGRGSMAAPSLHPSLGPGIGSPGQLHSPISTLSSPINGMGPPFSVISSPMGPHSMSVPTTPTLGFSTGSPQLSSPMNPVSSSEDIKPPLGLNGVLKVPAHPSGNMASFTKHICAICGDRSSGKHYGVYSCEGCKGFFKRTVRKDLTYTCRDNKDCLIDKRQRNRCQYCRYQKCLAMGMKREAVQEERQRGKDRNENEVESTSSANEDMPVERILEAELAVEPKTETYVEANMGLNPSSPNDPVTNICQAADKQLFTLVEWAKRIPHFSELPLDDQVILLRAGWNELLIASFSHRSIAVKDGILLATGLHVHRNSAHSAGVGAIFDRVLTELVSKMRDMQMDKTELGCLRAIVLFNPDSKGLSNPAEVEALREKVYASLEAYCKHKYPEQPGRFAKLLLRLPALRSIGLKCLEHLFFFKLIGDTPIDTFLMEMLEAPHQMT

[9] = molecular target: T4, RXRα homodimer [(RXR)2] (Homo sapiens, UniProt P19793); conditions: retinoid activity, transient transfection; cited from earlier work; further: key: '+' = agonist; '(+)' = weak agonist; '−' = antagonist; '0' = absence of agonist and antagonist activities
T4 construct: expressed in transfected cells
T4 sequence (P19793 1-462): T3 sequence (P19793 1-462)

[10] = tested on: RXR AF2; conditions: retinoid activity, reporter cells; cited from earlier work
[11] = molecular target: T5, RARβ AF2 (Homo sapiens, UniProt P10826); conditions: retinoid activity, reporter cells; cited from earlier work
T5 construct: expressed in transfected cells
T5 sequence (P10826 183-417 limits assumed): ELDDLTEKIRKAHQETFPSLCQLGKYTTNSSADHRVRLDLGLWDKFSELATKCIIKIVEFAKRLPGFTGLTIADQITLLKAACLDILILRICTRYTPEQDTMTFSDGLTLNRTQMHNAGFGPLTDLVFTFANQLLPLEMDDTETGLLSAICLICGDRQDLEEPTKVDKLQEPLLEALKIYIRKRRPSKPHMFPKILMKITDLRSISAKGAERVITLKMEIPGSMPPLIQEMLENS

[12] = 1 nM, two days in culture, mean ± SD
[13] = 10 nM, two days in culture, mean ± SD
[14] = 100 nM, two days in culture, mean ± SD
[15] = 1 μM, two days in culture, mean ± SD
[16] = Table 3C, retinoid 1 μM in medium, no inhibitor

| SMILES | percentage of apoptotic (<2N) particles [2, 12] | percentage of apoptotic (<2N) particles [2, 13] | percentage of apoptotic (<2N) particles [2, 14] | percentage of apoptotic (<2N) particles [2, 15] | percentage of apoptotic (<2N) particles [2, 16] [%] | induction of apoptosis / death of immature LC by the substance on its own ([2]; result in words) | class II or CD86 upregulation on immature LC [4] | nuclear translocation / DNA-binding activity of NF-κB complexes with TNFα [5] | RARγ AF2 [6] | RARα AF2 [7] | RARα-RXR DR5 [8] | (RXR)2 AF2 [9] | enhancement of antigen presentation to antigen-specific T-cells in synergy with TNFα [3] | RXR AF2 [10] | activation of immature LC (class II / CD86, DRhi-CD86hi) in the presence of TNFα ([4]; result in words) | RARβ AF2 [11] | percentage of apoptotic (<2N) particles ([2]; 100 nM SR11237 + 1 nM ligand) | percentage of apoptotic (<2N) particles ([2]; 100 nM SR11237 + 10 nM ligand) | percentage of apoptotic (<2N) particles ([2]; 100 nM SR11237 + 100 nM ligand) | percentage of apoptotic (<2N) particles ([2]; 100 nM SR11237 + 1 μM ligand) | further results |
| --- | --- | --- | --- | --- | --- | --- | --- | --- | --- | --- | --- | --- | --- | --- | --- | --- | --- | --- | --- | --- | --- |
| CC1=C(/C=C/C(C)=C/C=C/C(C)=C/CO)C(C)(C)CCC1 [Rol, retinol] | ≦5^(a) % | ≦5% | ≦5% | 17±8% | 17 ± 8 | increased | did not significantly induce |  |  |  |  |  |  |  |  |  |  |  |  |  | cytotoxicity at 2 days, 1 μM [1]: 20%; cytotoxicity at 3 days, 1 μM [1]: 40%; allogeneic T-lymphocyte proliferation (MLR) [3]: increase alloreactive proliferative response; minimum effective dose for significant LC activation [4]: 1 µM; synergy with IL-1β to activate LC ([4]; IL-1β 1-10 ng/ml, result in words): synergized with IL-1β; activation of immature LC (class II / CD86, DRhi-CD86hi) in the presence of TNFα ([4]; result in words, listed as Retinol): synergize with TNFα; also recorded: upregulate; activation of immature LC (class II / CD86, DRhi-CD86hi) in the presence of TNFα ([4]; result in words, listed as retinol): synergized with TNFα |
| CC1(C)CCC(C)(C)c2cc(C3(c4ccc(C(=O)O)cc4)OCCO3)ccc21 [SR11237, 4-[2-(5,6,7,8-tetrahydro-5,5,8,8-tetramethyl-2-naphthalenyl)-1,3-dioxolan-2-yl]benzoic acid, reference compound] | ≦5% | ≦5% | ≦5% | ≦5% |  | neither SR11237 (Table 3) nor BMS749 exhibited an apoptotic effect |  | synergize with TNFα | 0 | 0 | 0 | + | synergized with TNFα | + | also synergized with TNFα; also recorded: upregulate | 0 |  |  |  |  | induction of apoptosis / death of immature LC by the substance on its own ([2]; result in words, listed as SR1 1237): had no effects on its own; synergy with the pan-RXR agonist SR11237 to induce LC death ([2]; result in words): asynergistic effect on LC death induced by the selective RARα agonist |
| CC1=C(/C=C/C(C)=C/C=C/C(C)=C/C(=O)O)C(C)(C)CCC1 [tRA, all-trans retinoic acid, reference compound] | ≦5% | ≦5% | 14 ± 6^(b) % | 36 ± 10% | 38 ± 10 | induced a similar dose- and time-dependent increase in death | did not significantly induce | synergize with TNFα | + | +^(a) |  |  |  | 0^(a) | synergize with TNFα; also recorded: upregulate | + |  |  |  |  |  |
| CC1(C)C(=O)C(C)(C)c2cc(C(=O)Nc3ccc(C(=O)O)cc3)ccc21 [Compound I, 4-[[(2,3-Dihydro-1,1,3,3-tetramethyl-2-oxo-1H-inden-5-yl)carbonyl]amino]benzoic acid] | ≦5% | ≦5% | 27 ± 9% | 37 ± 7% | 38 ± 8 | apoptosis was induced |  | synergize with TNFα | 0 | + | + | 0 |  | 0 | upregulate | 0 | 6 ± 3% | 25 ± 10^(a) % | 32 ± 7% | 47 ± 10% | percentage of apoptotic (<2N) particles ([2]; 50 nM, two days in culture, mean ± SD): 18 ± 3^(b) %; percentage of apoptotic (<2N) particles ([2]; Table 3C, Compound I 100 nM + SR11237 100 nM in medium, no inhibitor): 38 ± 5% |
| CC1(C)CC=C(c2cnc3ccccc3c2)c2cc(C(=O)Nc3ccc(C(=O)O)cc3)ccc21 [Compound II, 4-[[[5,6-Dihydro-5,5-dimethyl-8-(3-quinolinyl)-2-naphthalenyl]carbonyl]amino]benzoic acid] | ≦5% | ≦5% | ≦5% | ≦5% |  | did not induce |  |  | 0 | −^(a)(b) | − | 0 | synergized with the RXR agonist (SR11237) | 0 |  | 0 | ≦5% | ≦5% | ≦5% | ≦5% | inhibition of retinoid-induced apoptosis / cell death of immature LC ([2]; result in words): inhibited retinoid-induced apoptosis; inhibition of retinoid-induced apoptosis / cell death of immature LC ([2]; result in words, listed as Compound H): inhibited; synergy with the RXR agonist SR11237 for TNFα-induced LC activation ([4]; result in words): synergized with the RXR agonist (SR11237) |
